What follows are molecules tested against unphosphorylated-BTK kinase domain (UP-BTK), GST-tagged human BTK (389-659aa) (Homo sapiens (Human), UniProt Q06187) (assay: BTK Kinase Lanthascreen Binding Assay). Conditions: Lanthascreen binding, 60 minutes incubation; pIC50 = negative log of the IC50 in molar.
Experimental: BTK Kinase Lanthascreen Binding Assay:
A BTK kinase lanthascreen binding assay monitors compound binding to unphosphorylated-BTK kinase domain (UP-BTK), by competing with a fluorescent labeled tracer. […] Data were analyzed using Xlfit™ version 5.3 from ID Business Solutions (Guildford), Microsoft Excel add-in. pIC50 refers to the negative log of the IC50 in molar.

Sequence of unphosphorylated-BTK kinase domain (UP-BTK), GST-tagged human BTK (389-659aa) (Q06187 389-659): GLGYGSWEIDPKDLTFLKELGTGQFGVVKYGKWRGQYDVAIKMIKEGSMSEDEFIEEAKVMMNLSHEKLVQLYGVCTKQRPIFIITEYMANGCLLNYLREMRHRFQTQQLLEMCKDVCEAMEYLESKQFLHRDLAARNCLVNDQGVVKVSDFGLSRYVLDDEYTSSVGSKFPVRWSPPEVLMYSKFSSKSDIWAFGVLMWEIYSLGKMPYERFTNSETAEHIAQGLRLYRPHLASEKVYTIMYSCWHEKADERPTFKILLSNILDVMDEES

SMILES | BTK_I_binding pIC50
CCC(=O)N[C@H]1CCCC[C@H]1NC(=O)c1sc2nccc3c2c1NC(=O)N3c1cnc(Oc2ccccc2)cc1C (relative stereo) [Example 381, 5-(*S)-(4-Methyl-6-phenoxypyridin-3-yl)-4-oxo-N-((1R,2S)-2-propionamidocyclohexyl)-4,5-dihydro-3H-1-thia-3,5,8-triazaacenaphthylene-2-carboxamide] | 6.75
CC(=O)N[C@H]1CC[C@@H](NC(=O)c2sc3nccc4c3c2NC(=O)N4c2cnc(Oc3ccccc3)cc2C)CC1 (single isomer, unassigned) [Example 389, N-((1S,4S)-4-Acetamidocyclohexyl)-5-(*S)-(4-methyl-6-phenoxypyridin-3-yl)-4-oxo-4,5-dihydro-3H-1-thia-3,5,8-triazaacenaphthylene-2-carboxamide] | 7.30
Cc1cc(Oc2ccccc2)ccc1N1C(=O)Nc2c(C(=O)N3CC[C@@H](NC(=O)/C(C#N)=C/C4CC4)C3)sc3nccc1c23 [Example 436, (R,E)-2-Cyano-3-cyclopropyl-N-(1-(5-(2-methyl-4-phenoxyphenyl)-4-oxo-4,5-dihydro-3H-1-thia-3,5,8-triazaacenaphthylene-2-carbonyl)pyrrolidin-3-yl)acrylamide] | 6.09
Cc1cc(Oc2ccccc2)ccc1N1C(=O)Nc2c(C(=O)N3CC[C@H](NC(=O)/C(C#N)=C/C4CC4)C3)sc3nccc1c23 [Example 435, (S,E)-2-Cyano-3-cyclopropyl-N-(1-(5-(2-methyl-4-phenoxyphenyl)-4-oxo-4,5-dihydro-3H-1-thia-3,5,8-triazaacenaphthylene-2-carbonyl)pyrrolidin-3-yl)acrylamide] | 6.15
C=CC(=O)N[C@H]1CCC[C@H]1NC(=O)c1sc2nccc3c2c1NC(=O)N3c1ccc(Oc2cncnc2)cn1 [Example 485, N-((1R,2S)-2-Acrylamidocyclopentyl)-4-oxo-5-(5-(pyrimidin-5-yloxy)pyridin-2-yl)-4,5-dihydro-3H-1-thia-3,5,8-triazaacenaphthylene-2-carboxamide] | 6.59
C=CC(=O)N[C@H]1CC[C@@H](NC(=O)c2sc3nccc4c3c2NC(=O)N4c2cnc(OCC(C)C)cc2C)C1 (single isomer, unassigned) [Example 365] | 7.93

Further lines, results first:

BTK_I_binding pIC50 | SMILES
7.21 | C=CC(=O)N[C@@H]1CC[C@H](NC(=O)c2sc3nccc4c3c2NC(=O)N4c2cnc(Oc3ccccc3)nc2)C1 [Example 319, N-((1S,3R)-3-Acrylamidocyclopentyl)-4-oxo-5-(2-phenoxypyrimidin-5-yl)-4,5-dihydro-3H-1-thia-3,5,8-triazaacenaphthylene-2-carboxamide]
7.75 | CCC(=O)NC1CCC[C@@H](NC(=O)c2sc3nccc4c3c2NC(=O)N4c2cnc(Oc3ccccc3)cc2C)C1 (single isomer, unassigned) [Example 423, 5-(*S)-(4-Methyl-6-phenoxypyridin-3-yl)-4-oxo-N-((1R,3R)-3-propionamidocyclohexyl)-4,5-dihydro-3H-1-thia-3,5,8-triazaacenaphthylene-2-carboxamide]
7.13 | C=CC(=O)N[C@H]1CCC[C@H](NC(=O)c2sc3nccc4c3c2NC(=O)N4c2ccc(Oc3ccccc3)nc2)C1 (single isomer, unassigned) [Example 323]
6.84 | C=CC(=O)N[C@H]1CCCC[C@H]1NC(=O)c1sc2nccc3c2c1NC(=O)N3c1ccc(Oc2ccccn2)cc1 [Example 442, N-((1R,2S)-2-Acrylamidocyclohexyl)-4-oxo-5-(4-(pyridin-2-yloxy)phenyl)-4,5-dihydro-3H-1-thia-3,5,8-triazaacenaphthylene-2-carboxamide]

Same assay, conditions: compound, 50 nM Tracer 236, 2 nM anti-GST antibody, 60 minutes; pIC50 = negative log of the IC50 in molar

SMILES | BTK_I_binding pIC50
Cc1cc(Oc2ccccc2)ccc1N1C(=O)Nc2c(C(=O)N[C@H]3CCCC[C@@H]3NC=O)sc3nccc1c23 [Example 54, N-((1S,2S)-2-Formamidocyclohexyl)-5-(2-methyl-4-phenoxyphenyl)-4-oxo-4,5-dihydro-3H-1-thia-3,5,8-triazaacenaphthylene-2-carboxamide] | 5.90
Cc1cc(Oc2ccccc2)ccc1N1C(=O)Nc2c(C(=O)N[C@H]3CC[C@@H](NC(=O)CN(C)C)C3)sc3nccc1c23 (single isomer, unassigned) [Example 102, N-((1S,3R)-3-(2-(dimethylamino)acetamido)cyclopentyl)-5-(*S)-(2-methyl-4-phenoxyphenyl)-4-oxo-4,5-dihydro-3H-1-thia-3,5,8-triazaacenaphthylene-2-carboxamide] | 7.50
O=C(N[C@@H]1CCC[C@@H]1O)c1sc2nccc3c2c1NC(=O)N3c1ccc(Oc2ccccc2)cc1 [Example 140, N-((1R,2S)-2-Hydroxycyclopentyl)-4-oxo-5-(4-phenoxyphenyl)-4,5-dihydro-3H-1-thia-3,5,8-triazaacenaphthylene-2-carboxamide] | 7.15
CCC(=O)N[C@H]1CCCC[C@@H]1NC(=O)c1sc2nccc3c2c1NC(=O)N3c1ccc(Oc2ccccc2)cc1C [Example 60, 5-(2-Methyl-4-phenoxyphenyl)-4-oxo-N-((1S,2S)-2-propionamidocyclohexyl)-4,5-dihydro-3H-1-thia-3,5,8-triazaacenaphthylene-2-carboxamide] | 5.40
N[C@H]1CCC[C@H]1NC(=O)c1sc2nccc3c2c1NC(=O)N3c1ccc(Oc2ccccc2)nc1 [Example 265, N-((1R,2S)-2-Aminocyclopentyl)-4-oxo-5-(6-phenoxypyridin-3-yl)-4,5-dihydro-3H-1-thia-3,5,8-triazaacenaphthylene-2-carboxamide] | 6.24

Now from value to molecule:

BTK_I_binding pIC50 | SMILES
7.05 | C=CC(=O)N[C@@H]1CCC[C@@H](NC(=O)c2sc3nccc4c3c2NC(=O)N4c2ccnc(-c3ccccc3)c2)C1 [Example 232, N-((1R,3R)-3-Acrylamidocyclohexyl)-4-oxo-5-(2-phenylpyridin-4-yl)-4,5-dihydro-3H-1-thia-3,5,8-triazaacenaphthylene-2-carboxamide]
6.63 | Cc1cc(Oc2ccccc2)ccc1N1C(=O)Nc2c(C(=O)N[C@H]3CCC[C@H](NC(=O)CN(C)C)C3)sc3nccc1c23 (single isomer, unassigned) [Example 252, N-((1R,3S)-3-(2-(Dimethylamino)acetamido)cyclohexyl)-5-(*S)-(2-methyl-4-phenoxyphenyl)-4-oxo-4,5-dihydro-3H-1-thia-3,5,8-triazaacenaphthylene-2-carboxamide]
6.69 | O=C(N[C@@H]1CCC[C@H]1O)c1sc2nccc3c2c1NC(=O)N3c1cccc(-c2ccccc2)c1 [Example 144, 5-([1,1′-Biphenyl]-3-yl)-N-((1R,2R)-2-hydroxycyclopentyl)-4-oxo-4,5-dihydro-3H-1-thia-3,5,8-triazaacenaphthylene-2-carboxamide]
7.78 | C=CC(=O)N[C@@H]1CCC[C@H](NC(=O)c2sc3nccc4c3c2NC(=O)N4c2ccc(Oc3ccccc3)cc2C)C1 (single isomer, unassigned) [Example 176, N-((1S,3R)-3-Acrylamidocyclohexyl)-5-(*S)-(2-methyl-4-phenoxyphenyl)-4-oxo-4,5-dihydro-3H-1-thia-3,5,8-triazaacenaphthylene-2-carboxamide]
8.12 | C=CC(=O)N[C@H]1CCCC[C@H]1NC(=O)c1sc2nccc3c2c1NC(=O)N3c1ccc(Oc2ccccc2)cc1 [Example 118, N-((1R,2S)-2-Acrylamidocyclohexyl)-4-oxo-5-(4-phenoxyphenyl)-4,5-dihydro-3H-1-thia-3,5,8-triazaacenaphthylene-2-carboxamide]

Same assay, conditions: read-out: BTK_I_binding pIC50 (converted)

SMILES | IC50
Cc1cc(OC(C)C)ncc1N1C(=O)Nc2c(C(=O)N[C@@H]3CC[C@H](N)C3)sc3nccc1c23 (single isomer, unassigned) [Example 429, N-((1R,3S)-3-Aminocyclopentyl)-5-(*S)-(6-isopropoxy-4-methylpyridin-3-yl)-4-oxo-4,5-dihydro-3H-1-thia-3,5,8-triazaacenaphthylene-2-carboxamide] | > 1000 nM
C=CC(=O)N[C@H]1CCC[C@@H](NC(=O)c2sc3nccc4c3c2NC(=O)N4c2ccc(OC(C)C)cc2C)C1 (single isomer, unassigned) [Example 275, N-((1R,3S)-3-Acrylamidocyclohexyl)-5-(*R)-(4-isopropoxy-2-methylphenyl)-4-oxo-4,5-dihydro-3H-1-thia-3,5,8-triazaacenaphthylene-2-carboxamide] | > 1000 nM

Results, then the molecule that gave them:

IC50 | SMILES
> 1000 nM | C=CC(=O)N[C@H]1CCC[C@H](NC(=O)c2sc3nccc4c3c2NC(=O)N4c2ccnc(-c3ccccc3)c2)C1 [Example 279, N-((1S,3S)-3-Acrylamidocyclohexyl)-4-oxo-5-(2-phenylpyridin-4-yl)-4,5-dihydro-3H-1-thia-3,5,8-triazaacenaphthylene-2-carboxamide]
> 1000 nM | N[C@H]1CCC[C@H]1NC(=O)c1sc2nccc3c2c1NC(=O)N3c1cc(-c2ccccc2)ncn1 [Example 281, N-((1R,2S)-2-Aminocyclopentyl)-4-oxo-5-(6-phenylpyrimidin-4-yl)-4,5-dihydro-3H-1-thia-3,5,8-triazaacenaphthylene-2-carboxamide]
22.9 nM | C=CC(=O)N[C@H]1CCC[C@H]1NC(=O)c1sc2nccc3c2c1NC(=O)N3c1ccc(Oc2ccccn2)nc1C [Example 478, N-((1R,2S)-2-Acrylamidocyclopentyl)-5-(2-methyl-6-(pyridin-2-yloxy)pyridin-3-yl)-4-oxo-4,5-dihydro-3H-1-thia-3,5,8-triazaacenaphthylene-2-carboxamide]
> 1000 nM | C=CC(=O)N[C@H]1CCCC[C@H]1NC(=O)c1sc2nccc3c2c1NC(=O)N3c1ccc(Oc2cccnn2)cc1 [Example 408, N-((1R,2S)-2-Acrylamidocyclohexyl)-4-oxo-5-(4-(pyridazin-3-yloxy)phenyl)-4,5-dihydro-3H-1-thia-3,5,8-triazaacenaphthylene-2-carboxamide]

From patent US10934310B2, “Inhibitors of Bruton's tyrosine kinase and method of their use” (JANSSEN PHARMACEUTICA NV, priority 2015, dated 2021)
